Laboratory results from the OligoGym collection.
Oligonucleotides are written 5' to 3', each unit as a sugar letter and its base; * is a phosphorothioate linkage, no mark a phosphodiester; rarer units and linkages stand in square brackets, end groups in braces. Plain capitals give the bases only. d = 2'-deoxy (DNA); r = 2'-OH (RNA)
Further: test concentration or dose not given here.

These substances were tested against RHOQ (assay: reporter assay of Huesken 2005). Conditions: siRNA.
“sense rUrGrArArArArUrGrArCrArGrCrCrUrUrArArAdTdT / antisense rUrUrUrArArGrGrCrUrGrUrCrArUrUrUrUrCrAdAdG” was tested, and the normalised inhibition (eCFP-eYFP dual reporter) was 78.8%. “sense rUrGrArArGrArGrUrGrGrArGrArGrArGrUrCrUdTdT / antisense rArGrArCrUrCrUrCrUrCrCrArCrUrCrUrUrCrAdAdT” was tested, and the normalised inhibition (eCFP-eYFP dual reporter) was 70.7%. “sense rUrGrArArUrCrGrGrArCrArUrUrUrGrGrArUrGdTdT / antisense rCrArUrCrCrArArArUrGrUrCrCrGrArUrUrCrAdGdA” was tested, and the normalised inhibition (eCFP-eYFP dual reporter) was 38.9%. “sense rUrGrArCrUrUrGrArGrCrUrUrArUrArGrCrUrAdTdT / antisense rUrArGrCrUrArUrArArGrCrUrCrArArGrUrCrAdTdG” gave a normalised inhibition (eCFP-eYFP dual reporter) of 84.9%. In the case of “sense rUrGrCrArUrCrArGrArUrArArUrGrGrUrGrUrUdTdT / antisense rArArCrArCrCrArUrUrArUrCrUrGrArUrGrCrAdTdC”, the normalised inhibition (eCFP-eYFP dual reporter) is reported as 61.6%. Substance “sense rUrGrCrArUrUrUrUrArGrArGrArArArCrArArUdTdT / antisense rArUrUrGrUrUrUrCrUrCrUrArArArArUrGrCrAdTdT” has a normalised inhibition (eCFP-eYFP dual reporter) of 84.9%. In the case of “sense rUrGrCrCrArUrGrCrArUrCrArGrArUrArArUrGdTdT / antisense rCrArUrUrArUrCrUrGrArUrGrCrArUrGrGrCrAdTdA”, the normalised inhibition (eCFP-eYFP dual reporter) is reported as 59.7%. “sense rUrGrCrUrCrArUrArUrCrArGrUrCrArCrArArAdTdT / antisense rUrUrUrGrUrGrArCrUrGrArUrArUrGrArGrCrAdTdT” gave a normalised inhibition (eCFP-eYFP dual reporter) of 83.6%. “sense rUrGrCrUrGrUrUrGrCrCrCrArArArUrUrArUrAdTdT / antisense rUrArUrArArUrUrUrGrGrGrCrArArCrArGrCrAdAdG” showed a normalised inhibition (eCFP-eYFP dual reporter) of 85.6%. “sense rUrGrGrArUrCrUrGrCrCrUrUrArUrUrGrCrArUdTdT / antisense rArUrGrCrArArUrArArGrGrCrArGrArUrCrCrAdCdA” showed a normalised inhibition (eCFP-eYFP dual reporter) of 88.7%. In the case of “sense rUrGrGrArUrGrUrCrUrUrCrUrUrUrCrUrUrCrCdTdT / antisense rGrGrArArGrArArArGrArArGrArCrArUrCrCrAdAdA”, the normalised inhibition (eCFP-eYFP dual reporter) is reported as 68.4%. For “sense rUrGrUrArUrGrUrGrArGrCrUrUrUrGrUrArGrAdTdT / antisense rUrCrUrArCrArArArGrCrUrCrArCrArUrArCrAdAdC”, the normalised inhibition (eCFP-eYFP dual reporter) was 75.3%. For “sense rUrGrUrGrArArCrArArCrCrUrArArUrGrCrArUdTdT / antisense rArUrGrCrArUrUrArGrGrUrUrGrUrUrCrArCrAdAdT”, the normalised inhibition (eCFP-eYFP dual reporter) was 75.4%. In the case of “sense rUrGrUrGrGrArUrCrUrGrCrCrUrUrArUrUrGrCdTdT / antisense rGrCrArArUrArArGrGrCrArGrArUrCrCrArCrAdGdC”, the normalised inhibition (eCFP-eYFP dual reporter) is reported as 68.8%. With “sense rUrUrArArUrUrCrArCrArUrGrArCrUrUrGrArGdTdT / antisense rCrUrCrArArGrUrCrArUrGrUrGrArArUrUrArAdCdA” the normalised inhibition (eCFP-eYFP dual reporter) was 54.4%. “sense rUrUrCrCrArArGrArArArUrGrGrUrGrGrUrUrCdTdT / antisense rGrArArCrCrArCrCrArUrUrUrCrUrUrGrGrArAdGdA” gave a normalised inhibition (eCFP-eYFP dual reporter) of 38.3%. For “sense rUrUrGrArArArArUrGrArCrArGrCrCrUrUrArAdTdT / antisense rUrUrArArGrGrCrUrGrUrCrArUrUrUrUrCrArAdGdT”, the normalised inhibition (eCFP-eYFP dual reporter) was 87.1%. “sense rUrUrGrCrUrGrUrUrGrCrCrCrArArArUrUrArUdTdT / antisense rArUrArArUrUrUrGrGrGrCrArArCrArGrCrArAdGdT” was tested, and the normalised inhibition (eCFP-eYFP dual reporter) was 83.5%. “sense rUrUrGrUrGrArArCrArArCrCrUrArArUrGrCrAdTdT / antisense rUrGrCrArUrUrArGrGrUrUrGrUrUrCrArCrArAdTdG” gave a normalised inhibition (eCFP-eYFP dual reporter) of 83%. Work on “sense rUrUrUrCrUrUrArUrUrUrArArUrUrUrUrGrGrUdTdT / antisense rArCrCrArArArArUrUrArArArUrArArGrArArAdGdT” yielded a normalised inhibition (eCFP-eYFP dual reporter) of 44.1%.

What follows are substances tested against UBE2I (assay: reporter assay of Huesken 2005). Conditions: siRNA.
“sense rArArArUrGrUrArArArUrUrCrGrArArCrCrArCdTdT / antisense rGrUrGrGrUrUrCrGrArArUrUrUrArCrArUrUrUdTdG” was tested, and the normalised inhibition (eCFP-eYFP dual reporter) was 53.9%. Work on “sense rArArCrCrArArArUrArUrCrCrArArGrArCrCrCdTdT / antisense rGrGrGrUrCrUrUrGrGrArUrArUrUrUrGrGrUrUdCdA” yielded a normalised inhibition (eCFP-eYFP dual reporter) of 48.9%. “sense rArArCrCrUrCrArUrGrArArCrUrGrGrGrArGrUdTdT / antisense rArCrUrCrCrCrArGrUrUrCrArUrGrArGrGrUrUdCdA” showed a normalised inhibition (eCFP-eYFP dual reporter) of 34.5%. “sense rArArGrArArArGrGrGrArCrUrCrCrGrUrGrGrGdTdT / antisense rCrCrCrArCrGrGrArGrUrCrCrCrUrUrUrCrUrUdTdC” showed a normalised inhibition (eCFP-eYFP dual reporter) of 45.6%. Work on “sense rArArUrGrUrGrUrArCrCrCrUrUrCrGrGrGrGrAdTdT / antisense rUrCrCrCrCrGrArArGrGrGrUrArCrArCrArUrUdCdG” yielded a normalised inhibition (eCFP-eYFP dual reporter) of 59.6%. With “sense rArCrArGrUrGrUrGrCrCrUrGrUrCrCrArUrCrUdTdT / antisense rArGrArUrGrGrArCrArGrGrCrArCrArCrUrGrUdCdC” the normalised inhibition (eCFP-eYFP dual reporter) was 59.2%. In the case of “sense rArCrCrArArArArUrGrUrArArArUrUrCrGrArAdTdT / antisense rUrUrCrGrArArUrUrUrArCrArUrUrUrUrGrGrUdGdG”, the normalised inhibition (eCFP-eYFP dual reporter) is reported as 86.4%. Work on “sense rArCrCrArArArUrArUrCrCrArArGrArCrCrCrAdTdT / antisense rUrGrGrGrUrCrUrUrGrGrArUrArUrUrUrGrGrUdTdC” yielded a normalised inhibition (eCFP-eYFP dual reporter) of 83.9%. “sense rArCrCrArUrUrArUrUrUrCrArCrCrCrGrArArUdTdT / antisense rArUrUrCrGrGrGrUrGrArArArUrArArUrGrGrUdGdG” was tested, and the normalised inhibition (eCFP-eYFP dual reporter) was 88.3%. In the case of “sense rArCrCrCrArUrUrUrGrGrUrUrUrCrGrUrGrGrCdTdT / antisense rGrCrCrArCrGrArArArCrCrArArArUrGrGrGrUdGdG”, the normalised inhibition (eCFP-eYFP dual reporter) is reported as 56.9%. “sense rArCrCrUrCrArUrGrArArCrUrGrGrGrArGrUrGdTdT / antisense rCrArCrUrCrCrCrArGrUrUrCrArUrGrArGrGrUdTdC” was tested, and the normalised inhibition (eCFP-eYFP dual reporter) was 58.8%. Substance “sense rArGrArArArGrGrGrArCrUrCrCrGrUrGrGrGrAdTdT / antisense rUrCrCrCrArCrGrGrArGrUrCrCrCrUrUrUrCrUdTdT” has a normalised inhibition (eCFP-eYFP dual reporter) of 63.1%. In the case of “sense rArGrArCrCrArCrCrCrArUrUrUrGrGrUrUrUrCdTdT / antisense rGrArArArCrCrArArArUrGrGrGrUrGrGrUrCrUdTdT”, the normalised inhibition (eCFP-eYFP dual reporter) is reported as 79.8%. “sense rArGrArUrCrCrUrArUrUrArGrGrArArUrArCrAdTdT / antisense rUrGrUrArUrUrCrCrUrArArUrArGrGrArUrCrUdGdT” gave a normalised inhibition (eCFP-eYFP dual reporter) of 90.4%. “sense rArGrArUrGrArUrUrArUrCrCrArUrCrUrUrCrGdTdT / antisense rCrGrArArGrArUrGrGrArUrArArUrCrArUrCrUdTdT” showed a normalised inhibition (eCFP-eYFP dual reporter) of 52.7%. For “sense rArGrCrCrArUrCrArCrArArUrCrArArArCrArGdTdT / antisense rCrUrGrUrUrUrGrArUrUrGrUrGrArUrGrGrCrUdGdG”, the normalised inhibition (eCFP-eYFP dual reporter) was 60.1%. “sense rArGrCrUrCrArArGrCrArGrArGrGrCrCrUrArCdTdT / antisense rGrUrArGrGrCrCrUrCrUrGrCrUrUrGrArGrCrUdGdG” gave a normalised inhibition (eCFP-eYFP dual reporter) of 89.5%.
